Laboratory results reported in patent publication US20250368633A1, “AZEPINE FUSED RING COMPOUND AS RIPK1 INHIBITOR AND USE THEREOF” (ARTIVILA BIOPHARMA, priority 2022, published 2025).

Test system: U937 cells
Assay: EC50 of necroptosis inhibition in U937 cells (TSZ-induced, CellTiter-Glo)
Format: cell-based
Settings: Homo sapiens, U-937; TSZ (hTNF-α, SM-164, Z-VAD-FMK) 20 hours; 10 concentration points; read-out: EC50 intervals of necroptosis inhibition in U937 cells
Procedure, shortened: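 U937 cells pretreated 15 min with compound (10-point, 1:3 series), then necroptosis induced by TSZ (hTNF-α, SM-164, Z-VAD-FMK) for 20 h at 37 °C. Viability measured as ATP by CellTiter-Glo luminescence; inhibition normalised to untreated and TSZ-only wells, EC50 from four-parameter fit.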

| Structure (SMILES) | EC50 |
| --- | --- |
| CN1C(=O)[C@@H](NC(=O)C(=O)NCCc2cccc(F)c2)COc2ccc(C#CCN3CC[C@@H](O)C3)cc21 [Example 114, N^1-(3-fluorophenethyl)-N^2-((S)-7-(3-((R)-3-hydroxypyrrolidin-1-yl)prop-1-yn-1-yl)-5-methyl-4-oxo-2,3,4,5-tetrahydrobenzo[b][1,4]oxazepin-3-yl)oxalamide] | < 100 nM |
| C=CC(=O)NCC#Cc1ccc2c(c1)N(C)C(=O)[C@@H](NC(=O)C(=O)NCCc1ccccc1)CO2 [Example 89, (S)—N^1-(7-(3-acrylamidoprop-1-yn-1-yl)-5-methyl-4-oxo-2,3,4,5-tetrahydrobenzo[b][1,4]oxazepin-3-yl)-N^2-phenethyloxalamide] | < 100 nM |
| CN1C(=O)[C@@H](NC(=O)C(=O)NCCc2ccccc2)COc2ccc(C#C[Si](C)(C)C)cc21 [Example 18, (S)—N^1-(5-methyl-4-oxo-7-((trimethylsilyl)ethynyl)-2,3,4,5-tetrahydrobenzo[b][1,4]oxazepin-3-yl)-N^2-phenethyloxalamide] | < 100 nM |
| C[C@@H](CNC(=O)C(=O)N[C@H]1COc2ccc(C#CC3(O)COC3)cc2N(C)C1=O)c1ccccc1 [Example 158, N^1-((S)-7-((3-hydroxyoxetan-3-yl)ethynyl)-5-methyl-4-oxo-2,3,4,5-tetrahydrobenzo[b][1,4]oxazepin-3-yl)-N^2-((R)-2-phenylpropyl)oxalamide] | < 100 nM |
| CN1C(=O)[C@@H](NC(=O)C(=O)NCCc2ccccc2)COc2ccc(C#CCN3CCC(=O)CC3)cc21 [Example 47, (S)—N^1-(5-methyl-4-oxo-7-(3-(4-oxopiperidin-1-yl)prop-1-yn-1-yl)-2,3,4,5-tetrahydrobenzo[b][1,4]oxazepin-3-yl)-N^2-phenethyloxalamide] | < 100 nM |
| C[C@@H](NC(=O)C(=O)N[C@H]1COc2ccc(C#CCN3CC[C@H](O)C3)cc2N(C)C1=O)c1ccccc1 [Example 130, N^1-((S)-7-(3-((S)-3-hydroxypyrrolidin-1-yl)prop-1-yn-1-yl)-5-methyl-4-oxo-2,3,4,5-tetrahydrobenzo[b][1,4]oxazepin-3-yl)-N^2-((R)-1-phenylethyl)oxalamide] | < 100 nM |
| C[C@@H](NC(=O)C(=O)N[C@H]1COc2ccc(C#CCN3C(=O)CCC3=O)cc2N(C)C1=O)c1ccccc1 [Example 144, N^1-((S)-7-(3-(2,5-dioxopyrrolidin-1-yl)prop-1-yn-1-yl)-5-methyl-4-oxo-2,3,4,5-tetrahydrobenzo[b][1,4]oxazepin-3-yl)-N^2-((R)-1-phenylethyl)oxalamide] | < 100 nM |
| CN1C(=O)[C@@H](NC(=O)C(=O)NCCc2cccc(F)c2)COc2ccc(C#CCN3CC[C@H](O)C3)cc21 [Example 115, N^1-(3-fluorophenethyl)-N^2-((S)-7-(3-((S)-3-hydroxypyrrolidin-1-yl)prop-1-yn-1-yl)-5-methyl-4-oxo-2,3,4,5-tetrahydrobenzo[b][1,4]oxazepin-3-yl)oxalamide] | < 100 nM |
| CN1C(=O)[C@@H](NC(=O)C(=O)NCc2cccc(F)c2)COc2ccc(C#CCCO)cc21 [Example 39, (S)—N^1-(3-fluorobenzyl)-N^2-(7-(4-hydroxybut-1-yn-1-yl)-5-methyl-4-oxo-2,3,4,5-tetrahydrobenzo[b][1,4]oxazepin-3-yl)oxalamide] | 100 to 500 nM |
| CN1C(=O)[C@@H](NC(=O)C(=O)NCCc2ccccc2)COc2ccc(C#CC3(O)COC3)cc21 [Example 43, (S)—N^1-(7-((3-hydroxyoxetan-3-yl)ethynyl)-5-methyl-4-oxo-2,3,4,5-tetrahydrobenzo[b][1,4]oxazepin-3-yl)-N^2-phenethyloxalamide] | < 100 nM |
| CN1C(=O)[C@@H](NC(=O)C(=O)NCCc2ccccc2)COc2ccc(C#CCNC(=O)CO)cc21 [Example 88, (S)—N^1-(7-(3-(2-hydroxyacetamido)prop-1-yn-1-yl)-5-methyl-4-oxo-2,3,4,5-tetrahydrobenzo[b][1, 4]oxazepin-3-yl)-N^2-phenethyloxalamide] | < 100 nM |
